Earlier results on 1 compound are cited in PMC12449377, “Psychedelic-like effects induced by 2,5-dimethoxy-4-iodoamphetamine, lysergic acid diethylamide, and psilocybin in male and female C57BL/6J mice” (Psychopharmacology, 2025).

In the data set the target is T1, 5-HT1A (Mus musculus, UniProt Q64264).
T1 construct: tissue BioIVT; host or cells: whole C57BL/6 mouse brain minus cerebellum, male and female
T1 sequence (Q64264 1-421): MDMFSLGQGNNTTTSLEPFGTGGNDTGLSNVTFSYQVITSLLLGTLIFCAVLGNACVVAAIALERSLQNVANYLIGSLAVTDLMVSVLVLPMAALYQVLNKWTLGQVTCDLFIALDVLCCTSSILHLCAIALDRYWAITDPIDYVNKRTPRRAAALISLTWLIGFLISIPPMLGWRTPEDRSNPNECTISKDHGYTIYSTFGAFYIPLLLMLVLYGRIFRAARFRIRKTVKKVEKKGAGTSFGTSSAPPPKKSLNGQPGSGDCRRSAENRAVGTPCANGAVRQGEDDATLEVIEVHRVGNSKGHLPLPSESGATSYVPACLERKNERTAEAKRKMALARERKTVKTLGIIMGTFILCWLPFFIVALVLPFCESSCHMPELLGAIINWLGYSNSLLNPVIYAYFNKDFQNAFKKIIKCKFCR
To be noted: previously determined, used to calculate Ki; read-out: Kd of radioligand at 5-HT1A; cited from earlier work.

The term Kd denotes the equilibrium constant for the complex coming apart. For the compound `CCCN(CCC)C1CCc2cccc(O)c2C1` (stereo not shown) [[^3H]8-OH-DPAT], the Kd was 1.03 nM.
